{"source": "patent US11058702B2", "about": "(EMEK, Inc., priority 2014, dated 2021)", "key": {"[1]": {"test_system": "cellular DNA of tumor and normal rectal mucosa", "experiment": "Clinical trial of ci BUdR in locally advanced cervical cancer: DNA incorporation", "assay_type": "in vivo, human"}, "[2]": {"test_system": "cellular DNA of tumor and normal rectal mucosa", "details": "cited from earlier work"}, "[3]": {"details": "IV or IA IUdR; cited from earlier work"}, "[4]": {"test_system": "cellular DNA of tumor and normal tissues", "details": "cited from earlier work"}, "high-grade sarcomas": {"test_system": "high-grade sarcomas", "details": "cited from earlier work"}, "[5]": {"test_system": "cellular DNA of tumor and normal tissues", "experiment": "Clinical Phase I/II trials of ci IUdR + RT: % IUdR-DNA cellular incorporation, plasma level, toxicity", "assay_type": "in vivo, human", "method": "In the prior clinical Phase I and II trials of continuous intravenous infusions of IUdR+RT for high-grade gliomas (Table 1), high-grade sarcomas (Table 2), in patients with liver metastases for colorectal cancer, and in patients with head and neck cancers, the % IUdR-DNA cellular incorporation was measured in tumor tissue as well as normal tissues, including normal liver and in circulating blood cells (granulocytes)."}, "[6]": {"details": "IV IUdR"}, "in vivo": {"experiment": "in vivo", "method": "No further dose escalations were used because of the increased risk of pulmonary aspiration with larger drug volumes (≥2000 mg/kg/d)."}, "[7]": {"test_system": "human bladder cancer cell line", "details": "IUdR for 48 hours prior to one-hour exposure to cisplatin; cited from earlier work"}, "[8]": {"test_system": "high-grade primary brain tumors", "details": "cited from earlier work; for Median survival (Months): RT + IUdR"}, "[9]": {"test_system": "human bladder and cervical cancer cells", "details": "cited from earlier work"}}, "note": "Where two headings read alike, the source gives them in different places.", "data": [{"compound": "O=c1[nH]c(=O)n([C@H]2C[C@H](O)[C@@H](CO)O2)cc1Br", "note": "[BUdR, bromodeoxyuridine]", "values": [{"measurement": "ratio of tumor to rectum", "setting": "[1]", "result": "1.5-1.8 fold"}, {"measurement": "tumor cell IUdR-DNA incorporation", "setting": "[2]; ci BUdR 1000 mg/M^2/day×4 days, Day 5", "result": "5-8%"}, {"measurement": "IUdR-DNA incorporation in adjacent normal rectal mucosa cells", "setting": "[2]; ci BUdR", "result": "3-4%"}]}, {"compound": "O=c1[nH]c(=O)n([C@H]2C[C@H](O)[C@@H](CO)O2)cc1I", "note": "[IUdR, 5-iodo-2′-deoxyuridine]", "values": [{"measurement": "plasma half-life", "setting": "[3]", "result": "< 5", "unit": "min"}, {"measurement": "% IUdR-DNA levels", "setting": "[4]; 5-7 day ci IUdR infusion, locally advanced head & neck cancers", "result": "> 5", "unit": "%"}, {"measurement": "IUdR-DNA tumor cell levels (plateau)", "setting": "[4]; ci IUdR 1000 mg/M^2, within 5 days, H&N SCC", "result": "7.5-8%"}, {"measurement": "steady state plasma concentration", "setting": "[4]; ci IUdR exposure that produced clinical responses", "result": 1, "unit": "µM"}, {"measurement": "local control", "setting": "[4]; ci IUdR+RT, locally advanced head & neck cancers", "result": "high local control rate"}, {"measurement": "% IUdR-DNA levels in peripheral granulocytes that predicted systemic bone marrow toxicity", "setting": "[4]; ci IUdR", "result": 6, "unit": "%"}, {"measurement": "plasma level of IUdR to achieve >3% IUdR-DNA cellular incorporation", "setting": "[4]; ci IUdR", "result": "> 1000", "unit": "nM"}, {"measurement": "threshold of % IUdR-DNA tumor cell incorporation associated with in vivo radiosensitization", "setting": "[4]; human, in vivo", "result": "≥ 3", "unit": "%"}, {"measurement": "toxicities of prolonged ci of IUdR", "setting": "[4]; human, in vivo", "result": "myelosuppression and acute GI toxicities"}, {"measurement": "% IUdR-DNA cellular incorporation in tumors", "setting": "[4]; patients with head and neck cancers or liver metastases from colorectal cancer", "result": "5-8%"}, {"measurement": "% IUdR-DNA cellular incorporation in adjacent normal liver tissue", "setting": "[4]; patients with liver metastases", "result": "less than 1%"}, {"measurement": "Local Control at 2 years", "setting": "high-grade sarcomas; High grade sarcomas (resectable), RT + IUdR + Surgery, RT + Surgery 25%", "result": 45, "unit": "%"}, {"measurement": "Local Control at 2 years", "setting": "high-grade sarcomas; High grade sarcomas (un-resectable), RT + IUdR, RT alone <10%", "result": 60, "unit": "%"}, {"measurement": "DNA-replacement/day", "setting": "[5]; ci IUdR 1000 mg/M^2, H&N SCC", "result": 1.3, "unit": "%"}, {"measurement": "TI of ci IUdR in the clinical studies", "setting": "[5]; from % IUdR-DNA incorporation at grade 3 or 4 toxicities", "result": "~1"}, {"measurement": "LD50", "setting": "[6]", "result": "never reached"}, {"measurement": "weight loss", "setting": "in vivo; ci IUdR 100 mg/kg/d, by day 6", "result": "≥ 20", "unit": "%"}, {"measurement": "GI toxicity, body weight loss", "setting": "in vivo; ci IUdR×6-14 days, xenograft studies", "result": "> 20", "unit": "%"}, {"measurement": "MTD at 4 days", "setting": "in vivo; mouse, in vivo, po, 250 mg/kg/d", "result": 250, "unit": "mg/kg/day"}, {"measurement": "dose-modifying factors at 10% survival", "setting": "[7]", "result": "up to 3.5"}, {"measurement": "Median survival (Months)", "setting": "[8]; Anaplastic astrocytomas (Grade 3 of 4), RT alone 24", "result": 39, "unit": "Months"}, {"measurement": "Median survival (Months)", "setting": "[8]; Glioblastoma Multiforme (Grade 4 of 4), RT alone 9", "result": 15, "unit": "Months"}, {"measurement": "prolongation of survival compared to RT alone", "setting": "[8]; ci IUdR+RT", "result": "greater than 50%"}, {"measurement": "radiation sensitizer enhancement", "setting": "[9]; IUdR (2 μM) + hydroxyurea", "result": "approximately 1.75"}, {"measurement": "increase in IdUTP pools and IUdR-DNA incorporation", "setting": "[9]; IUdR (2 μM) + non-cytotoxic doses of hydroxyurea", "result": 2, "unit": "fold"}]}]}
